Assay results: the supplement of paper PMC10307832

Legend:
Assay in all cases: relative viability (nuclei count vs DMSO), 5 days (fraction); higher = more cells survive
TGX 221 + OSI-027 = compound: CC1=CN2C(=O)C=C(N=C2C(=C1)C(C)NC3=CC=CC=C3)N4CCOCC4 [TGX 221] + COc1cccc2cc(-c3nc([C@H]4CC[C@H](C(=O)O)CC4)n4ncnc(N)c34)[nH]c12 [OSI-027] (partner 0.5 µM)
Outline: (§1)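 Values are medians from duplicate plates. Each reflects relative viability, defined as the nuclei count of treated wells over that of vehicle wells. Lung cancer cell lines in 1536-well plates were pin-tool dosed one day after seeding with one drug alone or with a fixed anchor-drug dose plus five library-drug doses (not always all listed) in √10 steps, then fixed, stained and imaged at 4× after 5 days.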

[1] = compound: C1=CC=C(C(=C1)C2=CC=C(C=C2)C3=CSC4=C3C(=C(C(=O)N4)C#N)O)O + Cc1cc(Nc2cc(N3CCN(C)CC3)nc(Sc3ccc(NC(=O)C4CC4)cc3)n2)n[nH]1 [Tozasertib] (partner 0.1 µM)
Outline: as §1

[2] = compound: O=C(CCCCCCNC(=O)c1cnc(N(c2ccccc2)c2ccccc2)nc1)NO [Ricolinostat] + Nc1ncn([C@H]2C[C@H](O)[C@@H](CO)O2)c(=O)n1 [Decitabine] (partner 2 µM)
Outline: as §1

[3] = compound: O=C(CCCCCCNC(=O)c1cnc(N(c2ccccc2)c2ccccc2)nc1)NO [Ricolinostat] + C[C@]1(O)C[C@@H](c2nc(-c3ccc4ccc(-c5ccccc5)nc4c3)c3c(N)nccn32)C1 [Linsitinib] (partner 1 µM)
Outline: as §1

Row | Cell Line | relative viability (TGX 221 + OSI-027; first compound 0.08 µM) | relative viability (TGX 221 + OSI-027; first compound 0.253 µM) | relative viability (TGX 221 + OSI-027; first compound 0.8 µM) | relative viability (TGX 221 + OSI-027; first compound 2.53 µM) | relative viability (TGX 221 + OSI-027; first compound 8 µM) | relative viability ([1]; first compound 0.08 µM) | relative viability ([1]; first compound 0.253 µM) | relative viability ([1]; first compound 0.8 µM) | relative viability ([1]; first compound 2.53 µM) | relative viability ([1]; first compound 8 µM) | relative viability ([2]; first compound 0.08 µM) | relative viability ([2]; first compound 0.253 µM) | relative viability ([2]; first compound 0.8 µM) | relative viability ([2]; first compound 2.53 µM) | relative viability ([3]; first compound 0.253 µM) | relative viability ([3]; first compound 0.8 µM) | relative viability ([3]; first compound 2.53 µM) | relative viability ([3]; first compound 0.08 µM)
1 | EKVX | 0.697 | 0.708 | 0.698 | 0.687 | 0.672 | 0.519 | 0.484 | 0.349 | 0.546 | 0.336 | 0.31 | 0.322 | 0.299 | 0.346 | 1.01 | 0.921 | 1.15 | –
2 | NCI-H358 | 0.716 | 0.719 | 0.756 | 0.739 | 0.583 | 0.107 | 0.112 | 0.104 | 0.0911 | 0.114 | 0.247 | 0.212 | 0.214 | 0.179 | 0.782 | 0.808 | 0.763 | 0.513
3 | HCC-44 | – | 0.417 | 0.51 | 0.543 | 0.41 | – | 1.36 | 0.876 | 1.03 | 0.744 | 1 | 0.948 | 0.926 | 0.951 | 0.682 | 0.589 | 0.545 | 0.575
4 | A-427 | 0.53 | 0.491 | 0.506 | 0.473 | 0.448 | 0.188 | 0.209 | 0.248 | 0.224 | 0.215 | 0.547 | 0.591 | 0.559 | 0.558 | 1.07 | 1.01 | 0.875 | 0.958
5 | NCI-H23 | 0.506 | 0.613 | 0.594 | 0.456 | 0.517 | 0.395 | 0.32 | 0.373 | 0.449 | 0.316 | 0.325 | 0.316 | 0.319 | 0.323 | 0.625 | 0.59 | 0.514 | 0.476
6 | NCI-H596 | 0.748 | 0.688 | 0.803 | 0.487 | 0.693 | 0.888 | 0.724 | 1.09 | 0.89 | 0.655 | 0.992 | 0.981 | 0.99 | 1.67 | 1.05 | 1 | 1.09 | 1.09
7 | NCI-H2087 | 0.579 | 0.481 | 0.574 | 0.465 | 0.622 | 0.213 | 0.258 | 0.225 | 0.244 | 0.2 | 0.23 | 0.318 | 0.24 | 0.145 | 0.986 | 1.01 | 0.847 | 0.896
8 | HCC-78 | 0.295 | 0.385 | 0.33 | 0.306 | 0.326 | 0.465 | 0.41 | 0.611 | 0.503 | 0.375 | – | 0.7 | 0.602 | 0.585 | 0.551 | 0.417 | 0.271 | –
9 | NCI-H520 | 0.212 | 0.165 | 0.227 | 0.188 | 0.195 | 0.409 | 0.417 | 0.432 | 0.367 | 0.441 | – | 0.521 | 0.513 | 0.426 | 0.991 | 1.02 | 0.869 | –
